Measured values published in the NIST ThermoML archive (doi:10.1016/j.jct.2016.10.033).
Numbers after ± are expanded uncertainties.

Legend:
[1] = xn = mol fraction of the nth substance listed; conditions: 103 kPa, Liquid, Vibrating tube method, x1 = 1
[2] = refractive index (Na D-line) (dimensionless); xn = mol fraction of the nth substance listed; conditions: 103 kPa, Liquid, Standard Abbe refractometry, x1 = 1
[3] = refractive index (Na D-line) (dimensionless); conditions: 103 kPa, Liquid, Standard Abbe refractometry
[4] = 103 kPa, Liquid, Vibrating tube method

Row | Structure (SMILES) | mass density ([1]; 298.15 K) | mass density ([1]; 303.15 K) | mass density ([1]; 308.15 K) | mass density ([1]; 313.15 K) | mass density ([1]; 318.15 K) | refractive index ([2]; 298.15 K) | refractive index ([2]; 303.15 K) | refractive index ([2]; 308.15 K) | refractive index ([2]; 313.15 K) | refractive index ([2]; 318.15 K) | refractive index ([3]; 298.15 K) | refractive index ([3]; 303.15 K) | refractive index ([3]; 308.15 K) | refractive index ([3]; 313.15 K) | refractive index ([3]; 318.15 K) | mass density ([4]; 298.15 K) | mass density ([4]; 303.15 K) | mass density ([4]; 308.15 K) | mass density ([4]; 313.15 K) | mass density ([4]; 318.15 K) | further results
1 | CO[Si](C)(OC)c1ccccc1 [dimethoxymethylphenylsilane] + C=C[Si](C)(OCC)OCC | 1000.78 ± 0.41 kg/m3 | 996.13 ± 0.41 kg/m3 | 991.48 ± 0.41 kg/m3 | 986.81 ± 0.41 kg/m3 | 982.15 ± 0.41 kg/m3 | 1.47763 ± 0.004 | 1.47528 ± 0.004 | 1.47293 ± 0.004 | 1.47061 ± 0.004 | 1.46825 ± 0.004 |  |  |  |  |  |  |  |  |  |  | 
2 | CO[Si](C)(C)OC [dimethoxydimethylsilane] |  |  |  |  |  |  |  |  |  |  | 1.36816 ± 0.004 | 1.36559 ± 0.004 | 1.36297 ± 0.004 | 1.36035 ± 0.004 | 1.35771 ± 0.004 | 857.9 ± 0.41 kg/m3 | 852.05 ± 0.41 kg/m3 | 846.16 ± 0.41 kg/m3 | 840.22 ± 0.42 kg/m3 | 834.24 ± 0.42 kg/m3 | 
3 | C=C[Si](OC)(OC)OC [trimethoxy(vinyl)silane] |  |  |  |  |  |  |  |  |  |  | 1.39022 ± 0.004 | 1.38775 ± 0.004 | 1.38535 ± 0.004 | 1.3829 ± 0.004 | 1.38046 ± 0.004 | 965.69 ± 0.41 kg/m3 | 960.02 ± 0.41 kg/m3 | 954.26 ± 0.41 kg/m3 | 948.47 ± 0.41 kg/m3 | 942.63 ± 0.41 kg/m3 | 
4 | CO[Si](C)(OC)c1ccccc1 [dimethoxymethylphenylsilane] + C=C[Si](OC)(OC)OC | 1000.78 ± 0.41 kg/m3 | 996.13 ± 0.41 kg/m3 | 991.48 ± 0.41 kg/m3 | 986.81 ± 0.41 kg/m3 | 982.15 ± 0.41 kg/m3 | 1.47763 ± 0.004 | 1.47528 ± 0.004 | 1.47293 ± 0.004 | 1.47061 ± 0.004 | 1.46825 ± 0.004 |  |  |  |  |  |  |  |  |  |  | 
5 | CCO[Si](C)(C)OCC [dimethyldiethoxysilane] |  |  |  |  |  |  |  |  |  |  | 1.38045 ± 0.004 | 1.37791 ± 0.004 | 1.37532 ± 0.004 | 1.37275 ± 0.004 | 1.37015 ± 0.004 | 835.43 ± 0.41 kg/m3 | 830.05 ± 0.42 kg/m3 | 824.66 ± 0.42 kg/m3 | 819.23 ± 0.42 kg/m3 | 813.79 ± 0.42 kg/m3 | refractive index ([3]; 293.15 K): 1.38452 ± 0.004; mass density ([4]; 293.15 K): 840.11 ± 0.41 kg/m3
6 | C=C[Si](C)(OCC)OCC [methylvinyldiethoxysilane] |  |  |  |  |  |  |  |  |  |  | 1.39751 ± 0.004 | 1.39501 ± 0.004 | 1.39249 ± 0.004 | 1.38997 ± 0.004 | 1.38742 ± 0.004 | 856.25 ± 0.41 kg/m3 | 851.09 ± 0.41 kg/m3 | 845.89 ± 0.41 kg/m3 | 840.71 ± 0.41 kg/m3 | 835.44 ± 0.41 kg/m3 | refractive index ([3]; 293.15 K): 1.40033 ± 0.004; mass density ([4]; 293.15 K): 862.21 ± 0.41 kg/m3
7 | CO[Si](C)(OC)c1ccccc1 [dimethoxymethylphenylsilane] |  |  |  |  |  |  |  |  |  |  | 1.47763 ± 0.004 | 1.47528 ± 0.004 | 1.47293 ± 0.004 | 1.47061 ± 0.004 | 1.46825 ± 0.004 | 1000.78 ± 0.41 kg/m3 | 996.13 ± 0.41 kg/m3 | 991.48 ± 0.41 kg/m3 | 986.81 ± 0.41 kg/m3 | 982.15 ± 0.41 kg/m3 | 
8 | CO[Si](C)(OC)c1ccccc1 [dimethoxymethylphenylsilane] + CO[Si](C)(C)OC | 1000.78 ± 0.41 kg/m3 | 996.13 ± 0.41 kg/m3 | 991.48 ± 0.41 kg/m3 | 986.81 ± 0.41 kg/m3 | 982.15 ± 0.41 kg/m3 | 1.47763 ± 0.004 | 1.47528 ± 0.004 | 1.47293 ± 0.004 | 1.47061 ± 0.004 | 1.46825 ± 0.004 |  |  |  |  |  |  |  |  |  |  | 
9 | CO[Si](C)(OC)c1ccccc1 [dimethoxymethylphenylsilane] + CCO[Si](C)(C)OCC | 1000.78 ± 0.41 kg/m3 | 996.13 ± 0.41 kg/m3 | 991.48 ± 0.41 kg/m3 | 986.81 ± 0.41 kg/m3 | 982.15 ± 0.41 kg/m3 | 1.47763 ± 0.004 | 1.47528 ± 0.004 | 1.47293 ± 0.004 | 1.47061 ± 0.004 | 1.46825 ± 0.004 |  |  |  |  |  |  |  |  |  |  | 
